Results reported in patent publication US20060115815A1 (priority 2002, published 2006).
Read-outs that look alike come from different tables or passages of the source.

What was measured:
[1] = target: recombinant HIV-1 protease (Human immunodeficiency virus type 1 group M subtype B, UniProt P04585); assay: biochemical; format: biochemical; settings: for Ki: read-out: Enzymatic assay Ki
84V90M [2] = target: T1, 84V90M (Human immunodeficiency virus type 1 group M subtype B, UniProt P04585, I572V/L578M); assay: biochemical; design: species or system HIV-1
WT = assay: microbe, parasite or virus in culture; format: cell-based, HIV-1
84V90M [3] = target: T1, 84V90M; assay: cell-based; design: species or system HIV-1
30N82I88D [4] = assay: microbe, parasite or virus in culture; format: cell-based, HIV-1
48V54V82A [5] = assay: microbe, parasite or virus in culture; format: cell-based, HIV-1
46I50V [6] = assay: microbe, parasite or virus in culture; format: cell-based, HIV-1
[7] = system: mutant HIV-1 with I84V/L90M mutations in the protease gene; format: cell-based; settings: MT-4, 84V90M; read-out: Cell-based assay (MT-4) EC50/nM 84V90M
WT HIV-1 = assay: microbe, parasite or virus in culture; format: cell-based
84V90M [8] = target: T1, 84V90M; assay: Enzymatic assay, IC50 against 84V90M mutant protease; format: biochemical, HIV-1
30N82I88D [9] = system: 30N82I88D; design: species or system HIV-1; settings: MT-4, 30N82I88D; read-out: Cell-based assay (MT-4) EC50/nM 30N82I88D
48V54V82A [10] = system: 48V54V82A; design: species or system HIV-1; settings: MT-4, 48V54V82A; read-out: Cell-based assay (MT-4) EC50/nM 48V54V82A
46I50V [11] = system: 46I50V; design: species or system HIV-1; settings: MT-4, 46I50V; read-out: Cell-based assay (MT-4) EC50/nM 46I50V
[12] = system: recombinant HIV-1 strains with resistance mutations in the protease gene; assay: Cross-resistance profile assay, whole panel of mutant viruses; format: cell-based; settings: {}
[13] = beagle, dog, in vivo, po
48V54V82S = system: 48V54V82S; design: species or system HIV-1; settings: MT-4, 48V54V82S; read-out: Cell-based assay (MT-4) EC50/nM 48V54V82S
48V82A90M = system: 48V82A90M; design: species or system HIV-1; settings: MT-4, 48V82A90M; read-out: Cell-based assay (MT-4) EC50/nM 48V82A90M
[14] = system: wild-type HIV-1 strain IIIB; assay: microbe, parasite or virus in culture; format: cell-based; settings: read-out: EC50
[15] = 84V90M enzyme, read-out: Enzymatic assay 84V90M IC50
[16] = MT-4, 84V90M, read-out: Cell-based assay (MT-4) EC50 84V90M
[17] = MT-4, 30N82I88D, read-out: Cell-based assay (MT-4) EC50 30N82I88D
[18] = Human immunodeficiency virus 1, read-out: Cell-based assay (MT-4) EC50 WT
[19] = Human immunodeficiency virus 1, read-out: Cell-based assay (MT-4) EC50 30N82I88D
[20] = Human immunodeficiency virus 1, read-out: Cell-based assay (MT-4) EC50 48V54V82A
[21] = Human immunodeficiency virus 1, read-out: Cell-based assay (MT-4) EC50 46I50V
[22] = read-out: Enzymatic assay WT IC50/nM
[23] = MT-4, WT, read-out: Cell-based assay (MT-4) EC50/nM WT
[24] = Human immunodeficiency virus 1, read-out: EC50 [nM] WT HIV-1

## CCOC(=O)C(C)OP(=O)(CCCNC(=O)c1cccc(CN2C(=O)N(Cc3ccc4[nH]nc(N)c4c3)[C@H](Cc3ccccc3)[C@H](O)[C@@H](O)[C@H]2Cc2ccccc2)c1)Oc1ccccc1 (some centres unmarked)
[1]
  Ki: 0.112 nM
[1]; read-out: Enzymatic assay WT IC50
  IC50: 1.4 nM
84V90M [2]; [15]
  IC50: 6.4 nM
WT; read-out: Cell-based assay (MT-4) EC50 WT
  EC50: 603 nM
84V90M [3]; [16]
  EC50: 1280 nM
30N82I88D [4]; [17]
  EC50: 678 nM
48V54V82A [5]; MT-4, 48V54V82A, read-out: Cell-based assay (MT-4) EC50 48V54V82A
  EC50: 208 nM
46I50V [6]; MT-4, 46I50V, read-out: Cell-based assay (MT-4) EC50 46I50V
  EC50: 209 nM

## Nc1cccc(CN2C(=O)N(Cc3cccc(C(=O)O)c3)C(Cc3ccccc3)C(O)C(O)C2Cc2ccccc2)c1 (centres unmarked)
84V90M [2]
  IC50: 299 nM
WT; [18]
  EC50: 2340 nM
84V90M [3]
  EC50: > 6000 nM
30N82I88D [4]; [19]
  EC50: 3360 nM

## CCOP(=O)(CCCNC(=O)c1cccc(CN2C(=O)N(Cc3cccc(N)c3)C(Cc3ccccc3)C(O)C(O)C2Cc2ccccc2)c1)OCC (centres unmarked)
84V90M [2]
  IC50: 29 nM
WT; [18]
  EC50: 176 nM
84V90M [3]
  EC50: 824 nM
30N82I88D [4]; [19]
  EC50: 171 nM
48V54V82A [5]; [20]
  EC50: 233 nM
46I50V [6]; [21]
  EC50: 195 nM

## Nc1n[nH]c2ccc(CN3C(=O)N(Cc4cccc(C(=O)O)c4)[C@H](Cc4ccccc4)[C@H](O)[C@@H](O)[C@H]3Cc3ccccc3)cc12
84V90M [2]; [15]
  IC50: 27 nM
84V90M [3]; [16]
  EC50: > 6000 nM
30N82I88D [4]; [17]
  EC50: > 6000 nM

## O=C1N(Cc2ccccc2)[C@H](Cc2ccccc2)[C@H](O)[C@@H](O)[C@@H](Cc2ccccc2)N1Cc1ccc2[nH]nc(O)c2c1
[1]
  Ki: 0.42 nM
[1]; [22]
  IC50: 6.6 nM
[7]
  EC50: > 600 nM
WT HIV-1; [23]
  EC50: 1230 nM
84V90M [8]
  IC50: 85 nM
30N82I88D [9]
  EC50: 869 nM
48V54V82A [10]
  EC50: 774 nM
46I50V [11]
  EC50: 937 nM

## N#Cc1cc(CN2C(=O)N(Cc3cccc(OCc4ccccc4)c3)[C@H](Cc3ccccc3)[C@H](O)[C@@H](O)[C@H]2Cc2ccccc2)ccc1F
[1]
  Ki: 1.43 nM
[1]; [22]
  IC50: 302 nM
[7]
  EC50: > 600 nM
84V90M [8]
  IC50: 114 nM

## COc1ccc(CN2C(=O)N(Cc3ccc(O)cc3)[C@H](Cc3ccccc3)[C@H](O)[C@@H](O)[C@H]2Cc2ccccc2)cc1C#N
[1]
  Ki: > 5 nM
[1]; [22]
  IC50: 130 nM
[7]
  EC50: 3120 nM
WT HIV-1; [23]
  EC50: 2010 nM
84V90M [8]
  IC50: 348 nM

## CC(C)CN(C[C@@H](O)[C@H](Cc1ccccc1)NC(=O)O[C@H]1CCOC1)S(=O)(=O)c1ccc(N)cc1 [Amprenavir]
WT HIV-1; [24]
  EC50: 20 nM
[12]
  Total No. of Resistant Viruses: 4
[13]
  AUC(2-24 hr) in PBMCs: 102,000 nM · hr
  t1/2: 1.7 h
  t1/2 (hr) in PBMCs: 1.7 h

## CCOP(=O)(COc1ccc(C[C@H](NC(=O)O[C@H]2CO[C@H]3OCC[C@H]32)[C@H](O)CN(CC(C)C)S(=O)(=O)c2ccc(OC)cc2)cc1)OCC [Compound 13]
MT-2 cells
  CC50: 50000 nM

## Cc1c(O)cccc1C(=O)N[C@@H](CSc1ccccc1)[C@H](O)CN1C[C@H]2CCCC[C@H]2C[C@H]1C(=O)NC(C)(C)C [Nelfinavir]
WT HIV-1; [24]
  EC50: 14 nM
[12]
  Total No. of Resistant Viruses: 9
[13]
  AUC(2-24 hr) in PBMCs: 33,000 nM · hr
  t1/2: 3.0 h
  t1/2 (hr) in PBMCs: 3.0 h

## Nc1n[nH]c2ccc(CN3C(=O)N(CCCOCP(=O)(O)O)C(Cc4ccccc4)C(O)C(O)C3Cc3ccccc3)cc12 (centres unmarked) [OCH2PO3H2]
84V90M [2]
  IC50: 137 nM
WT; [18]
  EC50: 1070 nM
84V90M [3]
  EC50: > 6000 nM

## CCOC(=O)C(C)OP(=O)(COc1ccc(C[C@@H]2[C@H](O)[C@@H](O)[C@@H](Cc3ccccc3)N(Cc3ccccc3)C(=O)N2Cc2ccccc2)cc1)Oc1ccccc1 (some centres unmarked) [R=H, R1=Ph, R2=Mono-lac-Et]
[1]
  Ki: 0.12 nM
[1]; [22]
  IC50: 6.6 nM
[7]
  EC50: > 6000 nM
WT HIV-1; [23]
  EC50: 1730 nM
84V90M [8]
  IC50: 56 nM
30N82I88D [9]
  EC50: 2790 nM
48V54V82A [10]
  EC50: > 6000 nM

## CCOP(=O)(COc1ccc(C[C@@H]2[C@H](O)[C@@H](O)[C@@H](Cc3ccccc3)N(Cc3cccc(N)c3)C(=O)N2Cc2cccc(N)c2)cc1)OCC [R=H, R1=Ph-mNH2, R2=OCh2PO3Et2]
[7]
  EC50: 328 nM
WT HIV-1; [23]
  EC50: 65 nM
30N82I88D [9]
  EC50: 16 nM
48V54V82A [10]
  EC50: 168 nM
48V54V82S
  EC50: 146 nM
46I50V [11]
  EC50: 46 nM

## CCOP(=O)(CCNC(=O)Oc1ccc(C[C@@H]2[C@H](O)[C@@H](O)[C@@H](Cc3ccc(OC)cc3)N(Cc3cccc(N)c3)C(=O)N2Cc2cccc(N)c2)cc1)OCC [R=OCH3, R1=Ph-mNH2, R2=OCONH(CH2)2PO3Et2]
[7]
  EC50: 2260 nM
30N82I88D [9]
  EC50: 77 nM
48V54V82A [10]
  EC50: 262 nM
48V54V82S
  EC50: 214 nM
48V82A90M
  EC50: 215 nM
46I50V [11]
  EC50: 184 nM

## CCOP(=O)(CCNC(=O)Oc1ccc(C[C@@H]2[C@H](O)[C@@H](O)[C@@H](Cc3ccc(OC)cc3)N(Cc3ccc(O)cc3)C(=O)N2Cc2ccc(O)cc2)cc1)OCC [R=OCH3, R1=Ph-pOH, R2=OCONH(CH2)2PO3Et2]
[7]
  EC50: 495 nM
WT HIV-1; [23]
  EC50: 33 nM
30N82I88D [9]
  EC50: 31 nM
48V54V82S
  EC50: 51 nM
48V82A90M
  EC50: 55 nM
46I50V [11]
  EC50: 223 nM

## CCOP(=O)(COc1ccc(CC(NC(=O)OC2COC3OCCC23)C(O)CN(CC(C)C)S(=O)(=O)c2ccc(OC)cc2)cc1)OCC (centres unmarked) [drawing 651 R1=OEt R2=OEt]
[14]
  EC50: < 50 nM
MT-2 cells
  CC50: 5000 to 50000 nM

## CCOC(=O)C(CC)OP(=O)(CCNCc1ccc(C[C@H](NC(=O)O[C@H]2CO[C@H]3OCC[C@H]32)[C@H](O)CN(CC(C)C)S(=O)(=O)c2ccc(OC)cc2)cc1)Oc1ccccc1 (some centres unmarked) [drawing 662 R1=Ph R2=Hba-Et]
[14]
  EC50: 50 to 500 nM
MT-2 cells
  CC50: 5000 to 50000 nM

## CCOC(=O)C(C)OP(=O)(CCNCc1ccc(C[C@H](NC(=O)O[C@H]2CO[C@H]3OCC[C@H]32)[C@H](O)CN(CC(C)C)S(=O)(=O)c2ccc(OC)cc2)cc1)Oc1ccccc1 (some centres unmarked) [drawing 662 R1=Ph R2=Lac-Et]
[14]
  EC50: 50 to 500 nM
MT-2 cells
  CC50: > 50000 nM

## O=C1N(Cc2ccccc2)[C@H](Cc2ccccc2)[C@H](O)[C@@H](O)[C@@H](Cc2ccccc2)N1Cc1ccc2[nH]ncc2c1 [drawing 863, reference compound]
84V90M [2]; [15]
  IC50: 43.3 nM
84V90M [3]
  EC50: 2310 nM

## O=C1N(Cc2ccccc2)[C@H](Cc2ccccc2)[C@H](O)[C@@H](O)[C@@H](Cc2ccccc2)N1Cc1ccc2[nH]ncc2c1 [drawing 870]
WT HIV-1; [23]
  EC50: 193 nM
30N82I88D [9]
  EC50: 281 nM
48V54V82A [10]
  EC50: 705 nM
46I50V [11]
  EC50: 772 nM

## Nc1n[nH]c2ccc(CN3C(=O)N(Cc4cccc(OCc5ccccc5)c4)C(Cc4ccccc4)C(O)C(O)C3Cc3ccccc3)cc12 (centres unmarked) [m-OBn]
84V90M [2]
  IC50: 27 nM
WT; [18]
  EC50: 218 nM
84V90M [3]
  EC50: 2420 nM
30N82I88D [4]; [19]
  EC50: 82 nM
48V54V82A [5]; [20]
  EC50: 709 nM
46I50V [6]; [21]
  EC50: 601 nM
